# Assay results published in PubChem BioAssay (NCI).
#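 Cells were grown in 96-well plates and exposed to each compound for 48 hours at five concentrations; endpoints were interpolated linearly between bracketing concentrations, or set to the highest concentration if not reached. GI50 is the concentration that inhibits growth by half. Definition used: TGI = concentration required for complete inhibition of growth.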
# Columns and labels:
# Experiment in all cases: NCI tumour cell line growth inhibition, 48 h
# SK-MEL-2 melanoma = system: SK-MEL-2 melanoma
# SK-MEL-5 melanoma = system: SK-MEL-5 melanoma
# OVCAR-3 ovarian = system: OVCAR-3 ovarian
# SW-620 colon = system: SW-620 colon
# HT29 colon = system: HT29 colon
# M14 melanoma = system: M14 melanoma
# MCF7 breast = system: MCF7 breast
# NCI-H226 lung = system: NCI-H226 lung
# EKVX NSCLC = system: EKVX NSCLC
# OVCAR-5 ovarian = system: OVCAR-5 ovarian
# K-562 leukemia = system: K-562 leukemia
# MDA-MB-435 = system: MDA-MB-435
# CAKI-1 renal = system: CAKI-1 renal
# A549 NSCLC = system: A549 NSCLC
# A498 renal = system: A498 renal
# UACC-62 melanoma = system: UACC-62 melanoma
# HCT-116 colon = system: HCT-116 colon
# OVCAR-4 ovarian = system: OVCAR-4 ovarian
# NCI/ADR-RES ovarian = system: NCI/ADR-RES ovarian
# SK-MEL-28 melanoma = system: SK-MEL-28 melanoma
# RPMI-8226 leukemia = system: RPMI-8226 leukemia
# BT-549 breast = system: BT-549 breast
# NCI-H460 lung = system: NCI-H460 lung
# T-47D breast = system: T-47D breast
# COLO 205 colon = system: COLO 205 colon
# SN12C renal = system: SN12C renal
# OVCAR-8 ovarian = system: OVCAR-8 ovarian
# LOX IMVI melanoma = system: LOX IMVI melanoma
# UO-31 renal = system: UO-31 renal
# HCC-2998 colon = system: HCC-2998 colon
# MALME-3M melanoma = system: MALME-3M melanoma
# SF-539 CNS = system: SF-539 CNS
# PC-3 prostate = system: PC-3 prostate
# TK-10 renal = system: TK-10 renal
# HCT-15 colon = system: HCT-15 colon
# SF-268 CNS = system: SF-268 CNS
# SR leukemia = system: SR leukemia
# U251 CNS = system: U251 CNS
# NCI-H23 lung = system: NCI-H23 lung
# HOP-62 NSCLC = system: HOP-62 NSCLC
# SF-295 CNS = system: SF-295 CNS
# NCI-H522 lung = system: NCI-H522 lung
# MDA-MB-231 breast = system: MDA-MB-231 breast
# DU-145 prostate = system: DU-145 prostate
# ACHN renal = system: ACHN renal
# 786-0 renal = system: 786-0 renal
# IGROV1 ovarian = system: IGROV1 ovarian
# HS 578T breast = system: HS 578T breast
# SNB-19 CNS = system: SNB-19 CNS
# KM12 colon = system: KM12 colon
# RXF 393 renal = system: RXF 393 renal
# UACC-257 melanoma = system: UACC-257 melanoma
# HOP-92 NSCLC = system: HOP-92 NSCLC
# SNB-75 CNS = system: SNB-75 CNS
compound,measurement,setting,value
N#Cc1cc(S(=O)(=O)Nc2nc3ccccc3o2)c(SCc2ccccc2)cc1Cl,GI50,SK-MEL-2 melanoma,22.3 µM
same,TGI,SK-MEL-2 melanoma,53.4 µM
same,GI50,SK-MEL-5 melanoma,17 µM
same,TGI,SK-MEL-5 melanoma,31.9 µM
same,GI50,OVCAR-3 ovarian,24.2 µM
same,TGI,OVCAR-3 ovarian,52.3 µM
same,GI50,SW-620 colon,17.9 µM
same,TGI,SW-620 colon,35.5 µM
same,GI50,HT29 colon,29.1 µM
same,TGI,HT29 colon,83.6 µM
same,GI50,M14 melanoma,25.4 µM
same,TGI,M14 melanoma,52.7 µM
same,GI50,MCF7 breast,39.8 µM
same,TGI,MCF7 breast,> 100 µM
same,GI50,NCI-H226 lung,31.6 µM
same,TGI,NCI-H226 lung,80.8 µM
same,GI50,EKVX NSCLC,18.4 µM
same,TGI,EKVX NSCLC,42.7 µM
same,GI50,OVCAR-5 ovarian,27 µM
same,TGI,OVCAR-5 ovarian,52 µM
same,GI50,K-562 leukemia,38.8 µM
same,TGI,K-562 leukemia,> 100 µM
same,GI50,MDA-MB-435,27.2 µM
same,TGI,MDA-MB-435,60.2 µM
same,GI50,CAKI-1 renal,24.7 µM
same,TGI,CAKI-1 renal,65.2 µM
same,GI50,A549 NSCLC,22.5 µM
same,TGI,A549 NSCLC,55 µM
same,GI50,A498 renal,21.3 µM
same,TGI,A498 renal,43.7 µM
same,GI50,UACC-62 melanoma,20.3 µM
same,TGI,UACC-62 melanoma,52.2 µM
same,GI50,HCT-116 colon,17.8 µM
same,TGI,HCT-116 colon,38.6 µM
same,GI50,OVCAR-4 ovarian,42.1 µM
same,TGI,OVCAR-4 ovarian,> 100 µM
same,GI50,NCI/ADR-RES ovarian,29.6 µM
same,TGI,NCI/ADR-RES ovarian,75.8 µM
same,GI50,SK-MEL-28 melanoma,18.9 µM
same,TGI,SK-MEL-28 melanoma,40.4 µM
same,GI50,RPMI-8226 leukemia,30.9 µM
same,TGI,RPMI-8226 leukemia,> 100 µM
same,GI50,BT-549 breast,20.5 µM
same,TGI,BT-549 breast,41.3 µM
same,GI50,NCI-H460 lung,21.5 µM
same,TGI,NCI-H460 lung,56.1 µM
same,GI50,T-47D breast,23.7 µM
same,TGI,T-47D breast,80.9 µM
same,GI50,COLO 205 colon,30.6 µM
same,TGI,COLO 205 colon,> 100 µM
same,GI50,SN12C renal,24.7 µM
same,TGI,SN12C renal,57.9 µM
same,GI50,OVCAR-8 ovarian,5.1 µM
same,TGI,OVCAR-8 ovarian,63.2 µM
same,GI50,LOX IMVI melanoma,18.7 µM
same,TGI,LOX IMVI melanoma,36.5 µM
same,GI50,UO-31 renal,20.4 µM
same,TGI,UO-31 renal,39.2 µM
same,GI50,HCC-2998 colon,19 µM
same,TGI,HCC-2998 colon,34.3 µM
same,GI50,MALME-3M melanoma,34.5 µM
same,TGI,MALME-3M melanoma,69.9 µM
same,GI50,SF-539 CNS,17.9 µM
same,TGI,SF-539 CNS,33.3 µM
same,GI50,PC-3 prostate,21.4 µM
same,TGI,PC-3 prostate,43.4 µM
same,GI50,TK-10 renal,52 µM
same,TGI,TK-10 renal,> 100 µM
same,GI50,HCT-15 colon,24.6 µM
same,TGI,HCT-15 colon,60.1 µM
same,GI50,SF-268 CNS,31.7 µM
same,TGI,SF-268 CNS,> 100 µM
same,GI50,SR leukemia,76.5 µM
same,TGI,SR leukemia,> 100 µM
same,GI50,U251 CNS,18.9 µM
same,TGI,U251 CNS,34 µM
same,GI50,NCI-H23 lung,26.1 µM
same,TGI,NCI-H23 lung,54.3 µM
same,GI50,HOP-62 NSCLC,21.4 µM
same,TGI,HOP-62 NSCLC,43.6 µM
same,GI50,SF-295 CNS,27.2 µM
same,TGI,SF-295 CNS,65.8 µM
same,GI50,NCI-H522 lung,17 µM
same,TGI,NCI-H522 lung,40.4 µM
same,GI50,MDA-MB-231 breast,24.8 µM
same,TGI,MDA-MB-231 breast,62.9 µM
same,GI50,DU-145 prostate,21 µM
same,TGI,DU-145 prostate,46.7 µM
same,GI50,ACHN renal,32.6 µM
same,TGI,ACHN renal,> 100 µM
same,GI50,786-0 renal,21.8 µM
same,TGI,786-0 renal,45.2 µM
same,GI50,IGROV1 ovarian,22 µM
same,TGI,IGROV1 ovarian,54.8 µM
same,GI50,HS 578T breast,25.4 µM
same,TGI,HS 578T breast,62 µM
same,GI50,SNB-19 CNS,20.9 µM
same,TGI,SNB-19 CNS,56.1 µM
same,GI50,KM12 colon,20.3 µM
same,TGI,KM12 colon,40.7 µM
same,GI50,RXF 393 renal,23.9 µM
same,TGI,RXF 393 renal,53.1 µM
same,GI50,UACC-257 melanoma,22.3 µM
same,TGI,UACC-257 melanoma,55.9 µM
same,GI50,HOP-92 NSCLC,17.4 µM
same,TGI,HOP-92 NSCLC,34.2 µM
same,GI50,SNB-75 CNS,25.5 µM
same,TGI,SNB-75 CNS,59.3 µM
